Experimental data published in patent US20230310432A1 (JULIUS-MAXIMILIANS-UNIVERSITÄT WÜRZBURG, priority 2017, published 2023).

Assays:
[1] = tested on: CD8+ T cells expressing a CD19 CAR with 4-1BB costimulation; assay: Bioluminescence-based cytotoxicity assay, K562/CD19 target cells; type: cell-based, human
Protocol: Cytotoxicity: Target cells were stably transduced with ffluc_GFP and incubated in triplicate wells at 1×10^4 cells/well with effector T cells at an effector to target (E:T) ratio of 5:1. D-luciferin substrate (Biosynth, Staad, Switzerland) was added to the co-culture to a final concentration of 0.15 mg/ml and the decrease in luminescence signal in wells that contained target cells and T-cells was measured using a luminometer (Tecan, Mannedorf, Switzerland). Specific lysis was calculated using the standard formula.
The inventors prepared CD8+ CAR-T cell lines from n=3 healthy donors. In each of the T-cell lines, the inventors enriched CAR-expressing T cells to >90% purity using the EGFRt-transduction marker. The inventors analyzed cytolytic activity of CD8^+ CAR-T cells in a bioluminescence-based cytotoxicity assay using K562 that the inventors had transduced with either CD19 (for testing CD19 CAR-T cells) or ROR1 (for testing ROR1 CAR-T cells) as target cells. Dasatinib was added to the assay medium at the beginning of the assay.
The inventors prepared CD8^+ CAR-T cell lines from n=3 healthy donors. In each of the T-cell lines, the inventors enriched CAR-expressing T cells to >90% purity using the EGFRt-transduction marker. The inventors analyzed cytolytic activity of CD8^+ CAR-T cells in a bioluminescence-based cytotoxicity assay using K562 target cells that the inventors had transduced with CD19.
The CAR-T cell cytolytic activity was analyzed at 1-hour intervals for 10 hours.
The inventors analyzed cytolytic activity of CD8+ CAR-T cells in a bioluminescence-based cytotoxicity assay.
The inventors prepared CD8^+ CD19 CAR-T cell lines with a 4-1BB costimulatory domain from one healthy donor. In the T-cell line, the inventors enriched CAR expressing T cells to >90% purity using the EGFRt-transduction marker. The inventors analyzed cytolytic activity of CD8^+ CAR-T cells in a 4-hour bioluminescence-based cytotoxicity assay using K562 that the inventors had transduced with CD19 as target cells to assess the influence of a panel of Src-kinase inhibitors on the cytolytic function of CAR-T cells. Src-kinase inhibitors were added to the assay medium at the beginning of the assay over a 4-log concentration range.

[2] = tested on: CD8+ T cells expressing a SLAMF7-CAR with 4-1BB costimulation; assay: Bioluminescence-based cytotoxicity assay, K562/SLAMF7 target cells; type: cell-based, human
[3] = tested on: CAR CD3 zeta at tyrosine 142; assay: Quantitative Western blot of phosphorylation in CD8+ CD19 CAR/4-1BB T cells; type: cell-based, human; conditions: 100 nM dasatinib; co-culture with RCH-ACV
[4] = tested on: CD19 CAR/4-1BB-T cells; assay: Frequency of human T cells in bone marrow and peripheral blood by flow cytometry (Example 6); type: in vivo, NSG mice; conditions: CAR/treated
Protocol: (§1) The Institutional Animal Care and Use Committee of UKW approved all mouse experiments. NOD.Cg-Prkdc^scidIl2rg^tm1wjl/SzJ (NSG) mice (female, 6-8 week old) were purchased from Charles River (Sulzfeld, Germany). Mice were inoculated with 1×10^6 Raji/ffluc_GFP tumor cells via tail vein injection (i.v.). Mice were treated with 5×10^6 CAR-modified or control untransduced T-cells (CD4:CD8 ratio=1:1) via tail vein injection (i.v.). […] Tumor burden and distribution was analyzed by serial bioluminescence imaging on an IVIS Lumina imager (Perkin Elmer, Baesweiler, Germany): mice received i.p. injections of 0.3 mg/g luciferin and images were acquired 10 minutes after luciferin injection in small binning mode at an acquisition time of 1 s to 1 min to obtain unsaturated images. Data were analyzed using LivingImage Software (Caliper) and the average radiance (or photon flux) analyzed in regions of interest that encompassed the entire body of each individual mouse. Mice were sacrificed at the end of the experiment and human T cells in bone marrow, peripheral blood and spleen were analyzed by flow cytometry. The presence of (human) cytokines in serum was measured using multiplex cytokine analysis.
In brief, cohorts of n≥3 mice were inoculated with 1×10^6 firefly-luciferase_GFP-transduced Raji tumor cells on day 0, and on day 7 mice were treated with either CAR-transduced or control untransduced T cells. T-cell products consisted of equal proportions of CD4^+ and CD8^+ T cells (1:1 ratio), the total dose was 5×10^6 T cells.
The inventors analyzed the presence of human T cells in bone marrow (BM), spleen (SP) and peripheral blood (PB) of mice, at d1 and d3 after T cell injection using flow cytometry. Live human T cells were identified as 7AAD^−, […] and CD4^+.

[5] = tested on: CD19 CAR/4-1BB-T cells; Raji tumor cells; assay: Tumor burden by bioluminescence imaging, intermittent dasatinib (Example 11); type: in vivo, NSG mice; conditions: day 8; CAR-T cells and intermittent dasatinib 5 mg/kg; 1.9e10 without dasatinib
Protocol: as §1
In brief, cohorts of 1-12 mice were inoculated with 1×10^6 firefly-luciferase_GFP-transduced Raji tumor cells on day 0. […]

[6] = tested on: CD19 CAR/4-1BB-T cells; Raji tumor cells; assay: Flow cytometry of tumor cells and human CAR-T cells in bone marrow and spleen, intermittent dasatinib; type: in vivo, NSG mice; conditions: day 15
Protocol: as §1
(§2) In brief, cohorts of 1-12 mice were inoculated with 1×10^6 firefly-luciferase_GFP-transduced Raji tumor cells on day 0. […] Serial bioluminescence imaging was performed to determine tumor burden on day 7, 9 and 15.
On day 15, mice were sacrificed and peripheral blood (PB), bone marrow (BM) and spleen (SP) analyzed for the presence of human CAR-T cells by flow cytometry.

[7] = tested on: PD-1 on CD19 CAR/4-1BB T cells; assay: Surface expression of PD-1 on human CAR-T cells by flow cytometry, intermittent dasatinib; type: in vivo, NSG mice; conditions: intermittently treated (CAR/+)
Protocol: as §2
Based on the mouse model introduced in Example 11 (FIG. 21A), the inventors analyzed the surface expression of PD-1 on human CAR-T cells in bone marrow (BM), peripheral blood (PB) and spleen (SP) by flow cytometry.

[8] = tested on: CAR-T cells co-expressing the iCasp suicide gene; assay: Elimination of iCasp+ T cells; type: cell-based, human; conditions: 100 nM dasatinib and dimerizer (dasatinib+/dimerizer+); 24 hours
Protocol: After 24 hours, cells were labeled with anti-CD3 mAB and analyzed by flow cytometry for the presence of iCasp+ T cells.
After 24 hours, cells were labeled with anti-CD3 mAB and analyzed by flow cytometry for the presence of iCasp^+ T cells.

Cc1nc(Nc2ncc(C(=O)Nc3c(C)cccc3Cl)s2)cc(N2CCN(CCO)CC2)n1 [dasatinib]
specific lysis ([1]; 0.1 μM dasatinib at the beginning of the assay, t=10 h): < 1% | specific lysis of target cells ([1]; dasatinib 25 nM, t=6 h, 53% by non-dasatinib treated): 26% | specific lysis of target cells ([1]; dasatinib 25 nM, t=12 h, 93% by non-dasatinib treated): 73% | specific lysis of target cells ([1]; dasatinib 100 nM for 2 hours, then removed, at 10 hours): > 95% | specific lysis of target cells ([1]; dasatinib 100 nM for 2 hours, then removed, at +4 hours): 77% | specific lysis of target cells ([1]; dasatinib ≤12.5 nM, t=12 h, 93% by non-dasatinib treated CAR-T cells): > 88% | specific lysis of target cells ([1]; dasatinib ≥50 nM, t=12 h, 93% by non-dasatinib treated): less than 12% | specific lysis of target cells ([1]; dasatinib ≥50 nM, up to t=6 h): less than 7% | specific lysis of target cells ([1]; inhibitor 10 nM, 4-hour assay, 82% by untreated CAR-T cells): 16.1% | specific lysis of target cells ([2]; dasatinib 20 nM, t=6 h, 63% by non-dasatinib treated): 21% | specific lysis of target cells ([2]; dasatinib 20 nM, t=12 h, 83% by non-dasatinib treated): 35% | specific lysis of target cells ([2]; dasatinib ≥40 nM, t=12 h, 83% by non-dasatinib treated): less than 10% | specific lysis of target cells ([2]; dasatinib ≥40 nM, up to t=6 h): less than 5.5% | phosphorylation compared to CAR-T cells co-cultured in the absence of dasatinib [3]: 12.86% | frequency of human T cells, bone marrow ([4]; day 1, 0.099% CAR/untreated): 0.087% | frequency of human T cells, peripheral blood ([4]; day 1, […] CAR/untreated): 0.19% | frequency of CAR-T cells, bone marrow ([4]; day +3, 0.56% CAR/untreated): 0.23% | frequency of CAR-T cells, peripheral blood ([4]; day +3, 0.61% CAR/untreated): 0.36% | average bioluminescence signal [5]: 5.6e9 p/s/cm*2/sr | percentage of human CAR-T cells, bone marrow ([6]; intermittent dasatinib, 1.9% without): 7.3% | percentage of human CAR-T cells, spleen ([6]; intermittent dasatinib, 3.2% without): 6.9% | remaining tumor burden, of all living cells in the bone marrow ([6]; one exemplary mouse, CAR-T cells and intermittent dasatinib, 58.8% CAR-T cells only): 0.22% | PD-1 mean fluorescence intensity (MFI) on CAR-T cells, peripheral blood ([7]; 4110 not exposed): 2775 | PD-1 mean fluorescence intensity (MFI) on CAR-T cells, spleen ([7]; 4318 not exposed): 23652 | PD-1 mean fluorescence intensity (MFI) on CAR-T cells, bone marrow ([7]; 9461 not exposed): 7025 | percentage of iCasp+ cells [8]: 36%
